Reference: patent publication EP4745138A1, “THIO-GLUTARIMIDO ISOINDOLINONE DERIVATIVE, BIFUNCTIONAL PROTEIN DEGRADER CONTAINING SAME, AND USES THEREOF” (Gluetacs Therapeutics (Shanghai) Co., Ltd., priority 2023, dated 2025)
Read-outs that look alike come from different tables or passages of the source.

Experiments:
MCF-7 = assay: Tumor cell proliferation inhibition (CellTiter-Meiluncell Luminescent Cell Viability Assay); format: cell-based; settings: Homo sapiens, 96 hours, Table I-2, ALK inhibitors
Summary of the method: (§1)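 Following overnight seeding, tumor cells received serial compound dilutions to final levels that included 10 nM and 500 nM. Viability was assessed by luminescence at the end of the specified exposure time. Cultures were kept at 37°C with 5% CO2.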

MM.1S = assay: as above; format: cell-based; settings: Homo sapiens, MM1.S, MM.1S, 96 hours; for inhibition at 0.01 µM: 10 nM, read-out: Inhibition Rate at 10 nM (%); for inhibition at 0.5 µM: 500 nM, read-out: Inhibition Rate at 500 nM (%)
Summary of the method: as §1

MV-4-11 = assay: as above; format: cell-based; settings: Homo sapiens, 96 hours; for inhibition at 0.01 µM: MV4-11, 10 nM, read-out: Inhibition Rate at 10 nM (%); for inhibition at 0.5 µM: MV4-11, 500 nM, read-out: Inhibition Rate at 500 nM (%)
Summary of the method: as §1

ALK = target: T1, ALK (Homo sapiens, UniProt Q96SW2+Q9HC35+Q9UM73); assay: Western blot, target protein degradation in H2228 Cell; format: cell-based; settings: substrate protein remaining %, treated at 500 nM and 50 nM, 24 hours
T1 construct: endogenous in cells; host or cells: H2228
Experimental: (§2) Conventional Western blot assay was performed to evaluate the effects of the compounds of the present disclosure on the expression of target proteins in cells.
(§3) (1) Cell Seeding and Protein Harvesting: The selected cells were processed according to the cell seeding procedure and protein harvesting procedure in Table II-2. Table II-2 Cell Seeding and Protein Harvesting Procedures
(§4) (2) To the collected supernatant, 5X SDS sample loading buffer was added, followed by denaturation at 95°C for 5 minutes. The denatured samples were then separated by SDS-PAGE electrophoresis on a polyacrylamide gel. Proteins were transferred to a nitrocellulose membrane (0.45 µm NC membrane), blocked with blocking buffer at room temperature for 1 hour, and subjected to antibody incubation and development procedures according to the antibody manufacturer's instructions (Cell Signaling Technology).
(§5) Half-Maximal Degradation Concentration value (the drug concentration required for degrading proteins by 50%, abbreviated as DC50) reads method: comparing the grayscale values of Western blot bands from drug-treated samples with those from blank DMSO-treated controls, and identifying the drug concentration range at which the grayscale value is half that of the DMSO-treated control bands.
(§6) DC50 values can be calculated using ImageJ software to measure grayscale values of Western blot bands from drug-treated samples. The concentration-response curve is fitted to estimate the drug concentration corresponding to half the grayscale value.
(§7) Target protein remaining (%) refers to the percentage of target protein remaining in cells after treatment with protein degrader compounds.
(§8) Calculation method for target protein remaining (%): Use ImageJ software to measure grayscale values of Western blot bands from drug (protein degrader)-treated samples. The grayscale value of drug-treated bands is divided by that of internal control protein bands, and the resulting quotient is normalized to obtain the relative percentage of remaining target protein after protein degrader treatment. Target protein degradation rate(%) = 1−target protein remaining(%). [formula]

[1] = target: T2, human Cereblon WT GST-tagged protein (Homo sapiens, UniProt Q96SW2); assay: CRBN-binding affinity, HTRF (CEREBLON BINDING kit); settings: for inhibition at 0.5 µM: read-out: Inhibition Rate at 0.5 µM (%); for inhibition at 2 µM: read-out: Inhibition Rate at 2 µM (%)
T2 construct: purchased CISBIO 64BDCRBNPEH
Summary of the method: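 HTRF competition against a thalidomide-red probe using GST-tagged Cereblon and Eu-labelled anti-GST antibody. Test concentrations (final): 2 µM and 0.5 µM in diluent #9 (1X); blank controls lack compound and protein, containing PROTAC binding buffer.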

FAK = target: T3, FAK (Homo sapiens, UniProt Q05397); assay: Western blot, target protein degradation in A549 Cell; format: cell-based; settings: substrate protein remaining %, treated at 500 nM and 50 nM, 24 hours
T3 construct: endogenous in cells; host or cells: A549
Experimental: as §2, §3, §4, §5, §6, §7, §8

SW620 = assay: Tumor cell proliferation inhibition (CellTiter-Meiluncell Luminescent Cell Viability Assay); format: cell-based; settings: Homo sapiens, 96 hours, Table I-12, FAK inhibitors; for inhibition at 0.01 µM: SW-620, 10 nM, read-out: Inhibition Rate at 10 nM (%); for inhibition at 0.5 µM: SW-620, 500 nM, read-out: Inhibition Rate at 500 nM (%)
Summary of the method: as §1

TMD8 = assay: as above; format: cell-based; settings: Homo sapiens, 96 hours, Table I-7, CDK9 inhibitors
Summary of the method: (§9)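 Cells were grown at 37°C under 5% CO2, seeded into 96-well plates, and dosed with compound on the next day. After a set treatment period, viability was read by luminescence with the CellTiter-Meiluncell reagent and IC50 values were derived. Final compound concentrations included 500 nM and 10 nM.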

CFPAC-1 = assay: as above; format: cell-based; settings: Homo sapiens, 96 hours, Table I-10, BCR-ABL inhibitors
Summary of the method: as §9

[2] = 10 nM, read-out: Inhibition Rate at 10 nM (%)
[3] = 500 nM, read-out: Inhibition Rate at 500 nM (%)

T3 sequence (Q05397 whole entry): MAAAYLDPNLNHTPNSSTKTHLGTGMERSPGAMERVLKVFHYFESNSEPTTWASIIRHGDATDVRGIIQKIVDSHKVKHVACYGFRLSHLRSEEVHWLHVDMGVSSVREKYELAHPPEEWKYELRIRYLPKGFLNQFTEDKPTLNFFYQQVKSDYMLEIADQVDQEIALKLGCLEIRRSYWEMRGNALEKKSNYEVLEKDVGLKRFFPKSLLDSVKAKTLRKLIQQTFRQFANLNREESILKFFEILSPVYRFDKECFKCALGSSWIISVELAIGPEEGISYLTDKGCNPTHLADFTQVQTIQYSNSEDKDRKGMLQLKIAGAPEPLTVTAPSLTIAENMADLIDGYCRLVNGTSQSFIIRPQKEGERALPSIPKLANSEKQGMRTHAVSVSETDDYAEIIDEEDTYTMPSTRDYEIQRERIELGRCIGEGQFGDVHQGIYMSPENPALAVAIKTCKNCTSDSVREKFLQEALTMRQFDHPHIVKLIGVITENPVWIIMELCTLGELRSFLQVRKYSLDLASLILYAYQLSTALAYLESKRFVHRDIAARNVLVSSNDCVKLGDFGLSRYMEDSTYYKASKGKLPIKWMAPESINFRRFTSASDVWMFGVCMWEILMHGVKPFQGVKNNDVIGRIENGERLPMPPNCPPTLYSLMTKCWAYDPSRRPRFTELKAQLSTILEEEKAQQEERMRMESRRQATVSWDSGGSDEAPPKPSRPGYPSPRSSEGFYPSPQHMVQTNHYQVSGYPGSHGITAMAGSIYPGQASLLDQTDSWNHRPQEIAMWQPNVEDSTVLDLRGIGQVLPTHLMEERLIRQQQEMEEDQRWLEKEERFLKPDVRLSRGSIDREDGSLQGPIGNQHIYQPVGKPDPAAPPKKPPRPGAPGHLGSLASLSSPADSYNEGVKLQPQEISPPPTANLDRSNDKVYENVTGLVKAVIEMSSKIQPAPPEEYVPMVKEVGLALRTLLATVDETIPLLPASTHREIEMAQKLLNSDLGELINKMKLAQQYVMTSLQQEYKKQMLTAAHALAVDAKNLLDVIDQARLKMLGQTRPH
T2 sequence (Q96SW2 whole entry): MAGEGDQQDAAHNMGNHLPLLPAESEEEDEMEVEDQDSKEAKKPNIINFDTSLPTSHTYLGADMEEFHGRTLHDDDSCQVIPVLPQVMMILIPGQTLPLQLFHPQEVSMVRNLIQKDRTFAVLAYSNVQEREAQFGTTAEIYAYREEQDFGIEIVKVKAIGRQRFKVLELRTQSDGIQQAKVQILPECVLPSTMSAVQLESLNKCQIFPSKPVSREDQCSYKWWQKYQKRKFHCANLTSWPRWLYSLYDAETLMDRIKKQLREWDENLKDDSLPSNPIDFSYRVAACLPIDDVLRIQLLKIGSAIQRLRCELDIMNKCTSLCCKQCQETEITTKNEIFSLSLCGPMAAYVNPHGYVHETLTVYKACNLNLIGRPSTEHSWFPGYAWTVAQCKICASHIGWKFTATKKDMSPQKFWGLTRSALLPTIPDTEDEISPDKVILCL
T1 sequence (Q9HC35+Q9UM73 fused): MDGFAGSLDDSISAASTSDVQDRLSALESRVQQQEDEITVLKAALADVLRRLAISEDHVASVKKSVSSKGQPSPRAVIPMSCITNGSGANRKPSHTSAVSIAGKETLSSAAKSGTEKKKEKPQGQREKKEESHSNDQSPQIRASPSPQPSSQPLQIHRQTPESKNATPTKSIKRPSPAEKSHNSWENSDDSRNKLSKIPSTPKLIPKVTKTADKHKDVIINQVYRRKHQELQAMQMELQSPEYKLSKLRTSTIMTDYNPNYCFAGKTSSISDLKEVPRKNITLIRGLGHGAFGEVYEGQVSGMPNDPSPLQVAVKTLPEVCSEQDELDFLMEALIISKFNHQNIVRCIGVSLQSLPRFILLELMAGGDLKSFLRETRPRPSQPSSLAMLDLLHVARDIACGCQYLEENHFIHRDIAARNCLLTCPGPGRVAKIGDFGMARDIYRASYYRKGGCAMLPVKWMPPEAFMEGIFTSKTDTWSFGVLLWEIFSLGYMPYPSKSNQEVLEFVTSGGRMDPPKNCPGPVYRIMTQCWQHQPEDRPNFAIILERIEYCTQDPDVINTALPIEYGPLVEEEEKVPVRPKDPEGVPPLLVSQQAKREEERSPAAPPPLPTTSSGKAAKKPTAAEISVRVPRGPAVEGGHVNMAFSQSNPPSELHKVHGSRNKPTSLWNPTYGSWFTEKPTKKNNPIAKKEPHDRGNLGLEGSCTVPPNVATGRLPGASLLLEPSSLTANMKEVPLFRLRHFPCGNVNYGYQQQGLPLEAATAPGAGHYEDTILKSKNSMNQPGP
T1 sequence (Q96SW2 whole entry): as the sequence (Q96SW2 whole entry) above
T1 sequence (Q16531 whole entry partner): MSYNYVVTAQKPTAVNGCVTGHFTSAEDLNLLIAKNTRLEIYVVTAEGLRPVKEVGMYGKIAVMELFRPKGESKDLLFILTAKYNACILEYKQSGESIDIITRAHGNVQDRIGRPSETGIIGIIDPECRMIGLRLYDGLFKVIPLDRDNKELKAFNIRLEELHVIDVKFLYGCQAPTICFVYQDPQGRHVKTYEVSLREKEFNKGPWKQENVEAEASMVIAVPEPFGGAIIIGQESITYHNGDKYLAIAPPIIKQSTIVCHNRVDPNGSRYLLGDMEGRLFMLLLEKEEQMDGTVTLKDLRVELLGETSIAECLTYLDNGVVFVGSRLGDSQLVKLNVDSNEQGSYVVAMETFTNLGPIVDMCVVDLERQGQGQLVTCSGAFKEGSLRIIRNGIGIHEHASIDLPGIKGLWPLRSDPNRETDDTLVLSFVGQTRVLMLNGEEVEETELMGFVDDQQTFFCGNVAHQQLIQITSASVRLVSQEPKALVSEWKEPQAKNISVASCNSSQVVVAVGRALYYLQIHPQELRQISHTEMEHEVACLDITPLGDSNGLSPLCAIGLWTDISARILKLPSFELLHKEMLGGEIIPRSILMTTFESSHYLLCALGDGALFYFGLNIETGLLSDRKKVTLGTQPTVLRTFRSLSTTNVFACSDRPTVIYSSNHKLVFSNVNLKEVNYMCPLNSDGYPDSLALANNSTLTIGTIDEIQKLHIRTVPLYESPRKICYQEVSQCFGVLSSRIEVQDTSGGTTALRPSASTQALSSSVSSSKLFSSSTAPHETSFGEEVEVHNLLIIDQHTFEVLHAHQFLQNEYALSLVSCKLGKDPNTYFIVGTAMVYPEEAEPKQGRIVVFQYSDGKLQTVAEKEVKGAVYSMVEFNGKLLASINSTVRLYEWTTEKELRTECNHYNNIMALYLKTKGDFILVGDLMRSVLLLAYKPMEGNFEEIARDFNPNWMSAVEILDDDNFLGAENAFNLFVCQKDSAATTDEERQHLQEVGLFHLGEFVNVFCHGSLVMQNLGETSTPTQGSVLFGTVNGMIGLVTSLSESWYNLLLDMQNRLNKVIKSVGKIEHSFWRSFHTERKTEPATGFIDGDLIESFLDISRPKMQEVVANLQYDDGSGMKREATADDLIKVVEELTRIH

## COc1cc(N2CCN(Cc3ccc4c(c3)C(=S)N(C3CCC(=O)NC3=O)C4)CC2)ccc1Nc1ncc(Cl)c(Nc2ccccc2P(C)(C)=O)n1 (centres unmarked) [GT-08679, 3-(6-((4-(4-((5-chloro-4-((2-(dimethylphosphoryl)phenyl)amino)pyrimidin-2-yl)amino)-3-methoxyphenyl)piperazin-1-yl)methyl)-1-thioxoisoindolin-2-yl)piperidine-2,6-dione]
MCF-7; MCF7, 10 nM, read-out: Inhibition Rate at 10 nM (%)
  inhibition at 0.01 µM: 20 to 30%
MCF-7; MCF7, 500 nM, read-out: Inhibition Rate at 500 nM (%)
  inhibition at 0.5 µM: 40 to 50%
MM.1S; Table I-2, ALK inhibitors
  inhibition at 0.01 µM: 10 to 20%
  inhibition at 0.5 µM: 20 to 30%
MV-4-11; Table I-2, ALK inhibitors
  inhibition at 0.01 µM: 50 to 60%
  inhibition at 0.5 µM: 80 to 100%
ALK
  Degradation of substrate protein ALK: A (0% ≤ substrate protein remaining % ≤ 80%)
[1]
  inhibition at 0.5 µM: 60 to 80%
  inhibition at 2 µM: 80 to 100%

## CN(c1nccnc1CNc1nc(Nc2ccc(N3CCN(Cc4ccc5c(c4)CN(C4CCC(=O)NC4=O)C5=S)CC3)cc2)ncc1C(F)(F)F)S(C)(=O)=O (centres unmarked) [GT-08779, N-(3-(((2-((4-(4-((2-(2,6-dioxopiperidin-3-yl)-1-thioxoisoindolin-5-yl)methyl)piperazin-1-yl)phenyl)amino)-5-(trifluoromethyl)pyrimidin-4-yl)amino)methyl)pyrazin-2-yl)-N-methylmethanesulfonamide]
MV-4-11; Table I-12, FAK inhibitors
  inhibition at 0.01 µM: 10 to 20%
  inhibition at 0.5 µM: 70 to 80%
FAK
  Degradation of substrate protein FAK: A (0% ≤ substrate protein remaining % ≤ 80%)
[1]
  inhibition at 0.5 µM: 30 to 40%
  inhibition at 2 µM: 80 to 100%

## CS(=O)(=O)c1cccc(CNc2nc(Nc3ccc(N4CCN(Cc5ccc6c(c5)CN(C5CCC(=O)NC5=O)C6=S)CC4)cc3)ncc2C(F)(F)F)c1 (centres unmarked) [GT-08780, 3-(5-((4-(4-((4-((3-(methylsulfonyl)benzyl)amino)-5-(trifluoromethyl)pyrimidin-2-yl)amino)phenyl)piperazin-1-yl)methyl)-1-thioxoisoindolin-2-yl)piperidine-2,6-dione]
MM.1S; Table I-12, FAK inhibitors
  inhibition at 0.01 µM: 20 to 30%
  inhibition at 0.5 µM: 40 to 50%
MV-4-11; Table I-12, FAK inhibitors
  inhibition at 0.01 µM: 20 to 30%
  inhibition at 0.5 µM: 70 to 80%
SW620
  inhibition at 0.01 µM: 10 to 20%
  inhibition at 0.5 µM: 40 to 50%
FAK
  Degradation of substrate protein FAK: A (0% ≤ substrate protein remaining % ≤ 80%)

## CN(c1cccc(CNc2nc(Nc3ccc(N4CCN(Cc5ccc6c(c5)CN(C5CCC(=O)NC5=O)C6=S)CC4)cc3)ncc2C(F)(F)F)c1)S(C)(=O)=O (centres unmarked) [GT-08781, N-(3-(((2-((4-(4-((2-(2,6-dioxopiperidin-3-yl)-1-thioxoisoindolin-5-yl)methyl)piperazin-1-yl)phenyl)amino)-5-(trifluoromethyl)pyrimidin-4-yl)amino)methyl)phenyl) -N-methylmethanesulfonamide]
MV-4-11; Table I-12, FAK inhibitors
  inhibition at 0.01 µM: 5 to 10%
  inhibition at 0.5 µM: 60 to 70%
FAK
  Degradation of substrate protein FAK: A (0% ≤ substrate protein remaining % ≤ 80%)
[1]
  inhibition at 0.5 µM: 53 to 60%
  inhibition at 2 µM: 60 to 80%

## CNC(=O)c1ccccc1Nc1cc(Nc2cc(C)c(C3CCN(Cc4ccc5c(c4)CN(C4CCC(=O)NC4=O)C5=S)CC3)cc2OC(C)C)ncc1C(F)(F)F (centres unmarked) [GT-08782, 2-((2-((4-(1-((2-(2,6-dioxopiperidin-3-yl)-1-thioxoisoindolin-5-yl)methyl)piperidin-4-yl)-2-isopropoxy-5-methylphenyl)amino)-5-(trifluoromethyl)pyridin-4-yl)amino)-N-methylbenzamide]
FAK
  Degradation of substrate protein FAK: A (0% ≤ substrate protein remaining % ≤ 80%)

## CN(c1nccnc1CNc1nc(Nc2ccc(N3CCN(Cc4cccc5c4CN(C4CCC(=O)NC4=O)C5=S)CC3)cc2)ncc1C(F)(F)F)S(C)(=O)=O (centres unmarked) [GT-08783, N-(3-(((2-((4-(4-((2-(2,6-dioxopiperidin-3-yl)-1-thioxoisoindolin-4-yl)methyl)piperazin-1-yl)phenyl)amino)-5-(trifluoromethyl)pyrimidin-4-yl)amino)methyl)pyrazin-2-yl)-N-methylmethanesulfonamide]
MV-4-11; Table I-12, FAK inhibitors
  inhibition at 0.01 µM: 20 to 30%
  inhibition at 0.5 µM: 70 to 80%
FAK
  Degradation of substrate protein FAK: A (0% ≤ substrate protein remaining % ≤ 80%)
[1]
  inhibition at 0.5 µM: 40 to 53%
  inhibition at 2 µM: 60 to 80%

## CS(=O)(=O)c1cccc(CNc2nc(Nc3ccc(N4CCN(Cc5cccc6c5CN(C5CCC(=O)NC5=O)C6=S)CC4)cc3)ncc2C(F)(F)F)c1 (centres unmarked) [GT-08784, 3-(4-((4-(4-((4-((3-(methylsulfonyl)benzyl)amino)-5-(trifluoromethyl)pyrimidin-2-yl)amino)phenyl)piperazin-1-yl)methyl)-1-thioxoisoindolin-2-yl)piperidine-2,6-dione]
FAK
  Degradation of substrate protein FAK: A (0% ≤ substrate protein remaining % ≤ 80%)
[1]
  inhibition at 0.5 µM: 53 to 60%
  inhibition at 2 µM: 80 to 100%

## CN(c1cccc(CNc2nc(Nc3ccc(N4CCN(Cc5cccc6c5CN(C5CCC(=O)NC5=O)C6=S)CC4)cc3)ncc2C(F)(F)F)c1)S(C)(=O)=O (centres unmarked) [GT-08883, N-(3-(((2-((4-(4-((2-(2,6-dioxopiperidin-3-yl)-1-thioxoisoindolin-4-yl)methyl)piperazin-1-yl)phenyl)amino)-5-(trifluoromethyl)pyrimidin-4-yl)amino)methyl)phenyl) -N-methylmethanesulfonamide]
MM.1S; Table I-12, FAK inhibitors
  inhibition at 0.01 µM: 10 to 20%
  inhibition at 0.5 µM: 40 to 50%
MV-4-11; Table I-12, FAK inhibitors
  inhibition at 0.01 µM: 20 to 30%
  inhibition at 0.5 µM: 70 to 80%
SW620
  inhibition at 0.01 µM: 30 to 40%
  inhibition at 0.5 µM: 40 to 50%
FAK
  Degradation of substrate protein FAK: A (0% ≤ substrate protein remaining % ≤ 80%)
[1]
  inhibition at 0.5 µM: 40 to 53%
  inhibition at 2 µM: 53 to 60%

## CC(C)(C)c1cnc(CSc2cnc(NC(=O)C3CCN(Cc4ccc5c(c4)CN(C4CCC(=O)NC4=O)C5=S)CC3)s2)o1 (centres unmarked) [GT-09435, N-(5-(((5-(tert-butyl)oxazol-2-yl)methyl)thio)thiazol-2-yl)-1-((2-(2,6-dioxopiperidin-3-yl)-1-thioxoisoindolin-5-yl)methyl)piperidine-4-carboxamide]
TMD8; [2]
  inhibition at 0.01 µM: 0 to 5%
TMD8; [3]
  inhibition at 0.5 µM: 70 to 80%
[1]
  inhibition at 0.5 µM: 40 to 53%
  inhibition at 2 µM: 80 to 100%

## Cc1ccc(C(=O)Nc2ccc(CN3CCN(Cc4ccc5c(c4)C(=S)N(C4CCC(=O)NC4=O)C5)CC3)c(C(F)(F)F)c2)cc1C#Cc1cnc2cccnn12 (centres unmarked) [GT-09439, N-(4-((4-((2-(2,6-dioxopiperidin-3-yl)-3-thioxoisoindolin-5-yl)methyl)piperazin-1-yl)methyl)-3-(trifluoromethyl)phenyl)-3-(imidazo[1,2-b]pyridazin-3-ylethynyl)-4-methylbenzamide]
CFPAC-1; [2]
  inhibition at 0.01 µM: 5 to 10%
CFPAC-1; [3]
  inhibition at 0.5 µM: 60 to 70%
